The source of these data is patent publication US7238701B2, “Substituted tetrahydrobenzothienopyrimidinamine compounds useful for treating hyper-proliferative disorders” (Bayer Pharmaceuticals Corporation, priority 2003, dated 2007).

Bounds are passed on as bounds.

For assay [1], the system named is A431cells (human epidermoid carcinoma). Nature of the assay: In vitro tumor cell proliferation assay (Cell Titer-Glo luminescent cell viability), A431 cells. It counts as cell-based. To be noted: A-431, 72 h, 72 hours drug exposure, 10% Fetal Bovine Serum, ATP luminescence readout, read-out: IC50 (50% inhibition of cell proliferation). The source says:
(§1) In vitro Tumor Cell Proliferation Assay
(§2) The tumor cell proliferation assay used to test the compounds of the present invention involves a readout called Cell Titer-Glow® Luminescent Cell Viability Assay developed by Promega (Cunningham, B A “A Growing Issue: Cell Proliferation Assays, Modern kits ease quantification of cell growth” The Scientist 2001, 15(13), 26, and Crouch, S P et al., “The use of ATP bioluminescence as a measure of cell proliferation and cytotoxicity” Journal of Immunological Methods 1993, 160, 81–88), that measures inhibition of cell proliferation. Generation of a luminescent signal corresponds to the amount of ATP present, which is directly proportional to the number of metabolically active (proliferating) cells.
(§3) A431cells (human epidermoid carcinoma, ATCC # HTB-20) and BT474 (human breast carcinoma, ATCC # CRL-1555) were plated at a density of 2.5×10^3 cells/well in 96 well black-clear bottom tissue culture plates in RPMI media with 10% Fetal Bovine Serum and incubated at 37° C. Twenty-four hours later, test compounds are added at a final concentration range from as high 100 μM to as low 64 pM depend on the activities of the tested compounds in serial dilutions at a final DMSO concentration of 0.1%. Cells were incubated for 72 hours at 37° C. in complete growth media after addition of the test compound. After 72 hours of drug exposure, the plates were equilibrated to room temperature for approximately 30 min. Then, using a Promega Cell Titer Glo Luminescent® assay kit, lysis buffer containing 100 microliters of the enzyme luciferase and its substrate, luciferin mixture, was added to each well. The plates were mixed for 2 min on orbital shaker to ensure cell lysis and incubated for 10 min at room temperature to stabilize luminescence signal. The samples were read on VICTOR 2 using Luminescence protocol, and analyzed with Analyze5 software to generate IC50 values.

Assay [2] has as its system BT474 (human breast carcinoma). Nature of the assay: In vitro tumor cell proliferation assay (Cell Titer-Glo luminescent cell viability), BT474 cells. Format: cell-based. As to conditions: BT-474, 72 hours drug exposure, 10% Fetal Bovine Serum, ATP luminescence readout, read-out: IC50 (50% inhibition of cell proliferation).
From the text: as §1, §2, §3

In the case of `O=C(O)C1CCc2c(sc3ncnc(Nc4ccc(Br)cc4F)c23)C1` (centres unmarked) [Example 2, 4-[(4-bromo-2-fluorophenyl)amino]-5,6,7,8-tetrahydro[1]benzothieno[2,3-d]pyrimidine-7-carboxylic acid], the figures for the IC50 in assay [1] and in assay [2] were under 50 µM and under 5 µM, respectively.

On to `CN1CCN(C(=O)CC2CCc3c(sc4ncnc(Nc5ccc(Br)cc5F)c34)C2)CC1` (centres unmarked) [Example 105, N-(4-bromo-2-fluorophenyl)-7-[2-(4-methyl-1-piperazinyl)-2-oxoethyl]-5,6,7,8-tetrahydro[1]benzothieno[2,3-d]pyrimidin-4-amine], for which the IC50 in assay [1] and in assay [2] was under 5 µM throughout.

Turning to `O=C(CC1CCc2c(sc3ncnc(Nc4cccc(Br)c4)c23)C1)N1CCCCC1` (centres unmarked) [Example 71, N-(3-bromophenyl)-7-[2-oxo-2-(1-piperidinyl)ethyl]-5,6,7,8-tetrahydro[1]benzothieno[2,3-d]pyrimidin-4-amine], the IC50 in assay [1] and in assay [2] was under 50 µM throughout.

As for `COCCNC(=O)C1CCc2c(sc3ncnc(Nc4ccc(F)c(Cl)c4)c23)C1` (centres unmarked) [Example 16, 4-[(3-chloro-4-fluorophenyl)amino]-N-(2-methoxyethyl)-5,6,7,8-tetrahydro[1]benzothieno[2,3-d]pyrimidine-7-carboxamide], the IC50 in assay [1] and in assay [2] was under 50 µM each time.

In the case of `CS(=O)(=O)CCNC(=O)C1CCc2c(sc3ncnc(Nc4ccc(F)c(Cl)c4)c23)C1` (centres unmarked) [Example 52, 4-[(3-chloro-4-fluorophenyl)amino]-N-[2-(methylsulfonyl)ethyl]-5,6,7,8-tetrahydro[1]benzothieno[2,3-d]pyrimidine-7-carboxamide], the IC50 in assay [1] and in assay [2] was under 50 µM each time.

For the compound `CN1CCN(CC2CCc3c(sc4ncnc(Nc5ccc(F)c(Cl)c5)c34)C2)CC1` (centres unmarked) [Example 15, N-(3-chloro-4-fluorophenyl)-7-[(4-methyl-1-piperazinyl)methyl]-5,6,7,8-tetrahydro[1]benzothieno[2,3-d]pyrimidin-4-amine], the IC50 in assay [1] and in assay [2] was under 5 µM throughout.

Turning to `Clc1cc(Nc2ncnc3sc4c(c23)CCC(CCN2CCCCC2)C4)ccc1OCc1ccccn1` (centres unmarked) [Example 191, N-[3-chloro-4-(pyridin-2-ylmethoxy)phenyl]-7-(2-piperidin-1-ylethyl)-5,6,7,8-tetrahydro[1]benzothieno[2,3-d]pyrimidin-4-amine], the IC50 in assay [1] and in assay [2] was under 5 µM throughout.

In the case of `CCOC(=O)C1CCc2c(sc3ncnc(Nc4ccc(F)c(Cl)c4)c23)C1` (centres unmarked) [Example 24, ethyl 4-[(3-chloro-4-fluorophenyl)amino]-5,6,7,8-tetrahydro[1]benzothieno[2,3-d]pyrimidine-7-carboxylate], the IC50 in assay [1] and in assay [2] was under 50 µM each time.

Take `COCCN(C)CCC1CCc2c(sc3ncnc(Nc4cccc(Br)c4)c23)C1` (centres unmarked) [Example 87, N-(3-bromophenyl)-7-{2-[(2-methoxyethyl)(methyl)amino]ethyl}-5,6,7,8-tetrahydro[1]benzothieno[2,3-d]pyrimidin-4-amine]: the IC50 in assay [1] and in assay [2] was under 5 µM throughout.

Turning to `COCCNCCC1CCc2c(sc3ncnc(Nc4ccc(F)c(Cl)c4)c23)C1` (centres unmarked) [Example 75, N-(3-chloro-4-fluorophenyl)-7-{2-[(2-methoxyethyl)amino]ethyl}-5,6,7,8-tetrahydro[1]benzothieno[2,3-d]pyrimidin-4-amine], the IC50 in assay [1] and in assay [2] was under 5 µM in each case.

As for `COCCN(C)CCC1CCc2c(sc3ncnc(Nc4ccc(OCc5ccc(F)cc5)c(Cl)c4)c23)C1` (centres unmarked) [Example 152, N-{3-chloro-4-[(4-fluorobenzyl)oxy]phenyl}-7-{2-[(2-methoxyethyl)(methyl)amino]ethyl}-5,6,7,8-tetrahydro[1]benzothieno[2,3-d]pyrimidin-4-amine], the IC50 in assay [1] and in assay [2] was under 5 µM throughout.

As to `Cc1ccc(Oc2ccc(Nc3ncnc4sc5c(c34)CCC(CCN(CCO)CCO)C5)cc2C)cn1` (centres unmarked) [Example 231, 2,2′-({2-[4-({3-methyl-4-[(6-methylpyridin-3-yl)oxy]phenyl}amino)-5,6,7,8-tetrahydro[1]benzothieno[2,3-d]pyrimidin-7-yl]ethyl}imino)diethanol], the results for the IC50 in assay [1] and in assay [2] were under 50 µM and under 5 µM, respectively.

In the case of `OCCN(CCO)CCC1CCc2c(sc3ncnc(Nc4ccc(OCc5cccc(F)c5)c(Cl)c4)c23)C1` (centres unmarked) [Example 165, 2,2′-({2-[4-({3-chloro-4-[(3-fluorobenzyl)oxy]phenyl}amino)-5,6,7,8-tetrahydro[1]benzothieno[2,3-d]pyrimidin-7-yl]ethyl}imino)diethanol], the IC50 in assay [1] and in assay [2] was under 5 µM each time.

Consider `Brc1cccc(Nc2ncnc3sc4c(c23)CCC(CCn2ccnc2)C4)c1` (centres unmarked) [Example 88, N-(3-bromophenyl)-7-[2-(1H-emidazol-1-yl)ethyl]-5,6,7,8-tetrahydro[1]benzothieno[2,3-d]pyrimidin-4-amine], for which the IC50 in assay [1] and in assay [2] was under 5 µM in each case.

`Brc1cccc(Nc2ncnc3sc4c(c23)CCC(CCN2CCCCC2)C4)c1` (centres unmarked) [Example 79, N-(3-bromophenyl)-7-[2-(1-piperidinyl)ethyl]-5,6,7,8-tetrahydro[1]benzothieno[2,3-d]pyrimidin-4-amine]: the IC50 in assay [1] and in assay [2] was under 5 µM in each case.

As for `COCCNCCC1CCc2c(sc3ncnc(Nc4ccc5c(cnn5Cc5ccccc5)c4)c23)C1` (centres unmarked) [Example 205, N-(1-benzyl-1H-indazol-5-yl)-7-{2-[(2-methoxyethyl)amino]ethyl}-5,6,7,8-tetrahydro[1]benzothieno[2,3-d]pyrimidin-4-amine], the IC50 in assay [1] and in assay [2] was under 5 µM each time.

As for `O=C(CC1CCc2c(sc3ncnc(Nc4cccc(Br)c4)c23)C1)N1CCCC1` (centres unmarked) [Example 81, N-(3-bromophenyl)-7-[2-oxo-2-(1-pyrrolidinyl)ethyl]-5,6,7,8-tetrahydro[1]benzothieno[2,3-d]pyrimidin-4-amine], the IC50 in assay [1] and in assay [2] was under 50 µM in each case.

Consider `CN1CCN(CCC2CCc3c(sc4ncnc(Nc5ccc(OCc6ccccn6)c(Cl)c5)c34)C2)CC1` (centres unmarked) [Example 183, N-[3-chloro-4-(pyridin-2-ylmethoxy)phenyl]-7-[2-(4-methylpiperazin-1-yl)ethyl]-5,6,7,8-tetrahydro[1]benzothieno[2,3-d]pyrimidin-4-amine], for which the IC50 in assay [1] and in assay [2] was under 5 µM in each case.

On to `COCCNC(=O)CC1CCc2c(sc3ncnc(Nc4ccc(OCc5ccc(F)cc5)c(Cl)c4)c23)C1` (centres unmarked) [Example 146, 2-[4-({3-chloro-4-[(4-fluorobenzyl)oxy]phenyl}amino)-5,6,7,8-tetrahydro[1]benzothieno[2,3-d]pyrimidin-7-yl]-N-(2-methoxyethyl)acetamide], for which the IC50 in assay [1] and in assay [2] was under 50 µM in each case.

On to `COC[C@H]1CCCN1CCC1CCc2c(sc3ncnc(Nc4ccc(OCc5cccc(F)c5)c(Cl)c4)c23)C1` (stereo partly drawn) [Example 198, N-{3-chloro-4-[(3-fluorobenzyl)oxy]phenyl}-7-{2-[(2R)-2-(methoxymethyl)pyrrolidin-1-yl]ethyl}-5,6,7,8-tetrahydro[1]benzothieno[2,3-d]pyrimidin-4-amine], for which the IC50 in assay [1] and in assay [2] was under 5 µM each time.

In the case of `Cc1ccc(Oc2ccc(Nc3ncnc4sc5c(c34)CCC(CCN(C)C)C5)cc2C)cn1` (centres unmarked) [Example 226], the IC50 in assay [1] is under 50 µM; in assay [2] it was under 5 µM.

Take `CN(C)CCCCNCCC1CCc2c(sc3ncnc(Nc4ccc5c(cnn5Cc5ccccc5)c4)c23)C1` (centres unmarked) [Example 212, N′-(2-{4-[(1-benzyl-1H-indazol-5-yl)amino]-5,6,7,8-tetrahydro[1]benzothieno[2,3-d]pyrimidin-7-yl}ethyl)-N,N-dimethylbutane-1,4-diamine]: the IC50 in assay [1] and in assay [2] was under 5 µM each time.

Turning to `OCCN(CCO)CCC1CCc2c(sc3ncnc(Nc4ccc(OCc5ccccn5)c(Cl)c4)c23)C1` (centres unmarked) [Example 179, 2,2′-{[2-(4-{[3-chloro-4-(pyridin-2-ylmethoxy)phenyl]amino}-5,6,7,8-tetrahydro[1]benzothieno[2,3-d]pyrimidin-7-yl)ethyl]imino}diethanol], the IC50 in assay [1] and in assay [2] was under 5 µM in each case.

With `Cc1ccc(Oc2ccc(Nc3ncnc4sc5c(c34)CCC(CCOS(C)(=O)=O)C5)cc2C)cn1` (centres unmarked) [Example 215, 2-[4-({3-methyl-4-[(6-methylpyridin-3-yl)oxy]phenyl}amino)-5,6,7,8-tetrahydro[1]benzothieno[2,3-d]pyrimidin-7-yl]ethyl methanesulfonate], the results for the IC50 in assay [1] and in assay [2] were under 50 µM and under 5 µM, respectively.

Turning to `O=C(CC1CCc2c(sc3ncnc(Nc4cccc(Br)c4)c23)C1)N1CCOCC1` (centres unmarked) [Example 70], the IC50 is under 5 µM in assay [1] and under 50 µM in assay [2].
